Source: patent US7015228B2, “4-amino-2-(2-pyridyl)pyrimidines as microbicidal active substances” (Ciba Specialty Chemicals Corporation, priority 2001, dated 2006)
Values after ≈ are worked out from the molar mass of the structure shown.

Tests used:
Type in all cases: cell-based
[1] = test system: Escherichia coli NCTC 8196; assay: Minimum inhibitory concentration (MIC) in microtitre plates; conditions: for Minimum inhibitory concentration (MIC) E. coli: Table 7, 48 hours at 37° C., MIC = ≦20% growth compared to control; for Minimum inhibitory concentration (MIC) E. coli NCTC 8196: Table 8, * = significant inhibition of growth, but not complete inhibition
Summary of the method: (§1)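 Compounds in DMSO, 1:2 dilution series; bacteria at 1–5×10^6 CFU/ml diluted 1:100 in CASO broth. Incubation 48 h at 37° C, growth read as OD 620 nm. MIC is the lowest concentration giving ≤20% growth relative to control; duplicates.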

[2] = test system: Staphylococcus hominis DMS 20328; assay: as above; conditions: Table 7; 48 hours at 37° C.; MIC = ≦20% growth compared to control
Summary of the method: as §1

[3] = test system: Aspergillus niger ATCC 6275; assay: Minimum inhibitory concentration (MIC), further microorganisms; conditions: Table 8; * = significant inhibition of growth, but not complete inhibition
Summary of the method: (§2)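 Broth microdilution in DMSO, 1:2 series; inocula adjusted to 1–5×10^6 CFU/ml then diluted 1:100 in CASO broth (bacteria, yeast) or Sabouraud 2% glucose broth (mould). Incubation 48 h at 37° C or 5 days at 28° C; MIC = lowest concentration giving ≦20% growth versus control by OD 620 nm.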

[4] = test system: Candida albicans ATCC 10231; assay: as above; conditions: Table 8; * = significant inhibition of growth, but not complete inhibition
Summary of the method: as §2

[5] = test system: Enterococcus hirae ATCC 10541; assay: as above; conditions: Table 8; * = significant inhibition of growth, but not complete inhibition
Summary of the method: as §2

[6] = test system: Epidermophyton floccosum DSM 10709; assay: as above; conditions: Table 8; * = significant inhibition of growth, but not complete inhibition
Summary of the method: as §2

[7] = test system: Klebsiella pneumonia ATCC 4352; assay: as above; conditions: Table 8; * = significant inhibition of growth, but not complete inhibition
Summary of the method: as §2

[8] = test system: Micrococcus luteus ATCC 9341; assay: as above; conditions: Table 8; * = significant inhibition of growth, but not complete inhibition
Summary of the method: as §2

[9] = test system: Pseudomonas aeruginosa CIP A-22; assay: as above; conditions: Table 8
Summary of the method: as §2

[10] = test system: S. epidermidis ATCC 12228; assay: as above; conditions: Table 8; * = significant inhibition of growth, but not complete inhibition
Summary of the method: as §2

[11] = test system: Salmonella choleraesuis ATCC 10708; assay: as above; conditions: Table 8
Summary of the method: as §2

[12] = test system: Staphylococcus aureus ATCC 9144; assay: as above; conditions: Table 8; * = significant inhibition of growth, but not complete inhibition
Summary of the method: as §2

[13] = test system: Trichophyton mentagrophytes ATCC 9533; assay: as above; conditions: Table 8; * = significant inhibition of growth, but not complete inhibition
Summary of the method: as §2

| Minimum inhibitory concentration (MIC) E. coli [1] | Minimum inhibitory concentration (MIC) E. coli NCTC 8196 [1] | Minimum inhibitory concentration (MIC) S. hominis [2] | Minimum inhibitory concentration (MIC) Aspergillus niger ATCC 6275 [3] | Minimum inhibitory concentration (MIC) Candida albicans ATCC 10231 [4] | Minimum inhibitory concentration (MIC) Enterococcus hirae ATCC 10541 [5] | Minimum inhibitory concentration (MIC) Epidermophyton floccosum DSM 10709 [6] | Minimum inhibitory concentration (MIC) Klebsiella pneumonia ATCC 4352 [7] | Minimum inhibitory concentration (MIC) Micrococcus luteus ATCC 9341 [8] | Minimum inhibitory concentration (MIC) Pseudomonas aeruginosa CIP A-22 [9] | Minimum inhibitory concentration (MIC) S. epidermidis ATCC 12228 [10] | Minimum inhibitory concentration (MIC) Staphylococcus aureus ATCC 9144 [12] | Minimum inhibitory concentration (MIC) Trichophyton mentagrophytes ATCC 9533 [13] | SMILES | Minimum inhibitory concentration (MIC) Salmonella choleraesuis ATCC 10708 [11] |
| --- | --- | --- | --- | --- | --- | --- | --- | --- | --- | --- | --- | --- | --- | --- |
| 120 µg/mL (≈ 314 µM) | >60 µg/mL | 7.5 µg/mL (≈ 19.6 µM) | >60 µg/mL | *60 μg/mL | 7.5 µg/mL (≈ 19.6 µM) | *30 μg/mL | >60 µg/mL | <3.75 µg/mL | >60 µg/mL | *7.5 μg/mL | 15 µg/mL (≈ 39.2 µM) | 60 µg/mL (≈ 157 µM) | CCCCCCCCCCCCNc1nc(-c2ccccn2)nc(C)c1CC [compound 12] | >60 µg/mL |
| >120 µg/mL | >60 µg/mL | 120 µg/mL (≈ 366 µM) | >60 µg/mL | >60 µg/mL | >60 µg/mL | >60 µg/mL | >60 µg/mL | >60 µg/mL | >60 µg/mL | >60 µg/mL | >60 µg/mL | >60 µg/mL | Cc1cc(NCCCCCCCCCN)nc(-c2ccccn2)n1 [compound 18] | >60 µg/mL |
| 60 µg/mL (≈ 162 µM) | >60 µg/mL | 15 µg/mL (≈ 40.6 µM) | >60 µg/mL | 7.5 µg/mL (≈ 20.3 µM) | 60 µg/mL (≈ 162 µM) | >60 µg/mL | >60 µg/mL | 7.5 µg/mL (≈ 20.3 µM) | >60 µg/mL | 60 µg/mL (≈ 162 µM) | 60 µg/mL (≈ 162 µM) | >60 µg/mL | Cc1cc(NCCCCCCCCCCCCN)nc(-c2ccccn2)n1 [compound 19] | >60 µg/mL |
| 60 µg/mL (≈ 201 µM) | 120 µg/mL (≈ 402 µM) | 3.75 µg/mL (≈ 12.6 µM) | >60 µg/mL | 120 µg/mL (≈ 402 µM) | 120 µg/mL (≈ 402 µM) | >60 µg/mL | 120 µg/mL (≈ 402 µM) | 120 µg/mL (≈ 402 µM) | >120 µg/mL | 120 µg/mL (≈ 402 µM) | 120 µg/mL (≈ 402 µM) | >60 µg/mL | CCCCCCCCNc1cc(C)nc(-c2ccccn2)n1 [compound 21] | >120 µg/mL |
| 120 µg/mL (≈ 384 µM) | >60 µg/mL | 3.75 µg/mL (≈ 12 µM) | 60 µg/mL (≈ 192 µM) | 15 µg/mL (≈ 48 µM) | <3.75 µg/mL | *7.5 μg/mL | >60 µg/mL | <3.75 µg/mL | >60 µg/mL | <3.75 µg/mL | 7.5 µg/mL (≈ 24 µM) | 15 µg/mL (≈ 48 µM) | CCCCCCCCCNc1cc(C)nc(-c2ccccn2)n1 [compound 22] | >60 µg/mL |
| 80 µg/mL (≈ 226 µM) | >60 µg/mL | 2.5 µg/mL (≈ 7.05 µM) | >60 µg/mL | 30 µg/mL (≈ 84.6 µM) | *15 μg/mL | 60 µg/mL (≈ 169 µM) | >60 µg/mL | <3.75 µg/mL | >60 µg/mL | 3.75 µg/mL (≈ 10.6 µM) | <3.75 µg/mL | >60 µg/mL | CCCCCCCCCCCCNc1cc(C)nc(-c2ccccn2)n1 [compound 24] | >60 µg/mL |
| 120 µg/mL (≈ 315 µM) | >60 µg/mL | 120 µg/mL (≈ 315 µM) | >60 µg/mL | >60 µg/mL | >60 µg/mL | >60 µg/mL | >60 µg/mL | 60 µg/mL (≈ 157 µM) | >60 µg/mL | >60 µg/mL | >60 µg/mL | >60 µg/mL | NCCCCCCCCCNc1cc(C(F)(F)F)nc(-c2ccccn2)n1 [compound 30] | >60 µg/mL |
| 120 µg/mL (≈ 338 µM) | >60 µg/mL | 30 µg/mL (≈ 84.4 µM) | >60 µg/mL | >60 µg/mL | >60 µg/mL | >60 µg/mL | >60 µg/mL | *15 μg/mL | >60 µg/mL | 60 µg/mL (≈ 169 µM) | 60 µg/mL (≈ 169 µM) | >60 µg/mL | CC(C)c1cc(NCCCCCCCCCN)nc(-c2ccccn2)n1 [compound 42] | >60 µg/mL |
| 120 µg/mL (≈ 314 µM) | >60 µg/mL | 3.75 µg/mL (≈ 9.8 µM) | >60 µg/mL | *15 μg/mL | <3.75 µg/mL | *60 μg/mL | >60 µg/mL | <3.75 µg/mL | >60 µg/mL | <3.75 µg/mL | <3.75 µg/mL | *60 μg/mL | CCCCCCCCCCCCNc1cc(C(C)C)nc(-c2ccccn2)n1 [compound 48] | >60 µg/mL |
| 120 µg/mL (≈ 325 µM) | >60 µg/mL | 30 µg/mL (≈ 81.2 µM) | >60 µg/mL | >60 µg/mL | >60 µg/mL | >60 µg/mL | >60 µg/mL | 15 µg/mL (≈ 40.6 µM) | >60 µg/mL | >60 µg/mL | *60 μg/mL | >60 µg/mL | CC(C)(C)c1cc(NCCCCCCCCCN)nc(-c2ccccn2)n1 [compound 54] | >60 µg/mL |
